Measured values taken from patent US4528194A, “2-(4-Diphenylmethylpiperazinyl)-1-phenyl alkanol or their salts, a process for their production and a cerebral circulation-improving drug” (Nippon Chemiphar Co., Ltd., priority 1982, dated 1985).
Structures can show the parent of a compound that is named as a salt. Where two headings read alike, the source gives them in different places.

Key:
[1] = system: platelets (collagen-induced coagulation); test: Test 2: Platelet Anti-coagulating Effect, collagen-induced coagulation; assay type: in vivo, Male Wistar rats; conditions: Rattus norvegicus; for inhibition at 250 mg/kg: 250 mg/kg oral, collagen 17.4 ug/ml, read-out: Inhibition percentage, Collagen (17.4 ug/ml)
Experimental: (§1) Male Wistar rats each having a body weight of about 300 g were orally administered with the test compounds. With the lapse of 3 hours after administration of the compound, each rate was anesthetized with ether, and the blood was collected from its abdominal vein. […] The blood was centrifuged at 1,000 rpm for 10 minutes. The resultant platelet-rich plasma (PRP) was centrifuged for further 10 minutes at 3,000 rpm, thereby collecting a platelet-poor plasma (PPP).
(§2) ADP or collagen was added to the PRP obtained above to induce coagulation, and the thus coagulated platelets were measured by turbidimetry using a platelet aggregation tracer ("PAT-4A", tradename of Niko Kizai Kabushiki Kaisha, Japan). The coagulation inhibition percentage was determined by the following equation: [formula] A: Maximum percentage of coagulation when a compound was administered B: Maximum percentage of coagulation when physiological saline was administered

[2] = Test 3: Acute Toxicity, oral, mice; conditions: mouse, in vivo, 7 days observation
Experimental: (§3) Certain test compounds of the invention were administered orally to SD-strain female or male rats each having a body weight of 150 to 200 g of ddN-strain male mice each having a body weight of about 20 g.

[3] = system: vertebral blood flow and femoral blood flow; test: Test 1: Peripheral Vasodilating Effect; assay type: in vivo, Mongrel dogs; conditions: 1 mg/kg i.v.; for Percentage of vertebral blood flow increase / Percentage of vertebral blood flow increase against percentage of femoral blood flow increase: anesthetized dogs, 5% aqueous tartaric acid solution, except compounds footnoted: (1) dimethylsulfoxide, (2) distilled water, (3) physiological saline
Experimental: Mongrel dogs of both sexes each weighing about 10 kg were anesthetized with sodium pentobarbital (35 mg/kg, i.v.). Artificial respiration was performed with room air. The vertebral blood flow and femoral blood flow were measured by an electromagnetic flowmeter (Nihon Koden, MF-27) with flow probes. The blood pressure and heart rate were measured at the same time. For intravenous administration of each compound (1 mg/kg), the cephalic vein was cannulated and the compound solution injected.

[4] = system: platelets (ADP-induced coagulation); test: Test 2: Platelet Anti-coagulating Effect, ADP-induced coagulation; assay type: in vivo, Male Wistar rats; conditions: Rattus norvegicus, 250 mg/kg oral, rats, 3 hours after administration, ADP 2.7 uM, read-out: Inhibition percentage, ADP (2.7 uM)
Experimental: as §1, §2

[5] = Test 3: Acute Toxicity, oral, rats; conditions: rat, in vivo, 7 days observation
Experimental: as §3

[6] = 200 mg/kg oral, rats, 3 hours after administration, collagen 6.25 ug/ml, read-out: Inhibition percentage, Collagen (6.25 ug/ml)
[7] = rats, 3 hours after administration
[8] = footnote * of Table 1, dogs, in dimethylsulfoxide

SMILES	LD50 at 168 h [2] [mg/kg]	Percentage of vertebral blood flow increase [3] [%]	Percentage of vertebral blood flow increase against percentage of femoral blood flow increase [3]	also measured
COc1ccc(C(O)CN2CCN(C(c3ccccc3)c3ccccc3)CC2)c(OC)c1OC (stereo not shown) [Inventive compound 9, 2-(4-Diphenylmethylpiperazinyl)-1-(2,3,4-trimethoxyphenyl)ethanol.dihydrochloride]	1230	124	6.1	inhibition at 200 mg/kg [1, 6]: 90%
C(=C\c1ccccc1)/CN1CCN(C(c2ccccc2)c2ccccc2)CC1 [compound 5, Cinnarizine, reference compound]		60	2.5	
CN(C)CCCOC1(Cc2ccccc2)CCCCCC1 [compound 4, Bencyclane fumarate, reference compound]		67	2.9	inhibition at 250 mg/kg [1, 7]: 0%; inhibition at 250 mg/kg [4]: 0%
COc1ccc(C(O)CN2CCN(C(c3ccccc3)c3ccccc3)CC2)cc1OC (stereo not shown) [Inventive compound 8, 1-(3,4-Dimethoxyphenyl)-2-(4-diphenylmethylpiperazinyl)ethanol.dihydrochloride]	470	84	15.3	
C=CCOc1ccc(C(O)CN2CCN(C(c3ccccc3)c3ccccc3)CC2)cc1 (stereo not shown) [Inventive compound 11, 1-(4-Allyloxyphenyl)-2-(4-diphenylmethylpiperazinyl)ethanol.monohydrochloride]	> 2000	93	2.0	
OC(CN1CCN(C(c2ccccc2)c2ccccc2)CC1)c1ccccc1 (stereo not shown) [compound 2, 2-(4-Diphenylmethylpiperazinyl)-1-phenylethanol.dihydrochloride, reference compound]		25	1.3	
OC(CN1CCN(C(c2ccccc2)c2ccccc2)CC1)c1ccc(OCc2ccccc2)cc1 (stereo not shown) [Inventive compound 4, 1-(4-Benzyloxyphenyl)-2-(4-diphenylmethylpiperazinyl)ethanol.monohydrochloride]	> 2000	90	5.8	
C[C@@H]([C@@H](O)c1ccc(O)cc1)N1CCN(C(c2ccccc2)c2ccccc2)CC1 (relative stereo) [Inventive compound 3, dl-threo-2-(4-Diphenylmethylpiperazinyl)-1-(4-hydroxyphenyl)propanol.tartrate]		60	3.2	
CC(O)(CN1CCN(C(c2ccccc2)c2ccccc2)CC1)c1ccccc1 (stereo not shown) [compound 3, 2-(4-Diphenylmethylpiperazinyl)-1-methyl-1-phenylethanol.dihydrochloride, reference compound]		20	1.1	
Oc1ccc(C(O)CN2CCN(C(c3ccccc3)c3ccccc3)CC2)cc1 (stereo not shown) [Inventive compound 1, 2-(4-Diphenylmethylpiperazinyl)-1-(4-hydroxyphenyl)ethanol.monohydrochloride]		76	3.6	inhibition at 200 mg/kg [1, 6]: 81%; inhibition at 250 mg/kg [1, 7]: 25%; LD50 at 168 h [5]: > 2000 mg/kg; inhibition at 250 mg/kg [4]: 28%
COc1ccc(C(O)CN2CCN(C(c3ccccc3)c3ccccc3)CC2)c(OC)c1 (stereo not shown) [Inventive compound 7, 1-(2,4-Dimethoxyphenyl)-2-(4-diphenylmethylpiperazinyl)ethanol.dihydrochloride]	350	123	5.8	
CC(=O)Oc1ccccc1C(=O)O [Aspirin, reference compound]				inhibition at 200 mg/kg ([1]; read-out: inhibition against collagen): 99%
C=CCOc1cc(OC)ccc1C(O)CN1CCN(C(c2ccccc2)c2ccccc2)CC1 (stereo not shown) [Inventive compound 12, 1-(2-Allyloxy-4-methoxyphenyl)-2-(4-diphenylmethylpiperazinyl)ethanol.dihydrochloride]		123	7.7	
C[C@@H]([C@H](O)c1ccc(O)cc1)N1CCN(C(c2ccccc2)c2ccccc2)CC1 (relative stereo) [Inventive compound 2, dl-erythro-2-(4-Diphenylmethylpiperazinyl)-1-(4-hydroxyphenyl)propanol.1/2tartrate]		66	3.5	inhibition at 200 mg/kg [1, 6]: 40%; inhibition at 250 mg/kg [1, 7]: 17%; LD50 at 168 h [5]: > 2000 mg/kg; inhibition at 250 mg/kg [4]: 16%
COc1cc(C(O)CN2CCN(C(c3ccccc3)c3ccccc3)CC2)cc(OC)c1OC (stereo not shown) [Inventive compound 10, 2-(4-Diphenylmethylpiperazinyl)-1-(3,4,5-trimethoxyphenyl)ethanol.monohydrochloride]	> 2000	95	4.6	
OC(CN1CCN(C(c2ccccc2)c2ccccc2)CC1)c1ccc(OCc2ccccc2)cc1OCc1ccccc1 (stereo not shown) [Inventive compound 5, 1-(2,4-Dibenzyloxyphenyl)-2-(4-diphenylmethylpiperazinyl)ethanol.monohydrochloride]	> 2000	62	15.3	blood flow increase, course [3, 8]: increased in two phases; increased blood flow lasted for [3, 8]: 30 min
C[C@@H]([C@@H](O)c1ccc(OCc2ccccc2)cc1)N1CCN(C(c2ccccc2)c2ccccc2)CC1 (relative stereo) [Inventive compound 6, dl-threo-1-(4-Benzyloxyphenyl)-2-(4-diphenylmethylpiperazinyl)propanol.dihydrochloride]		96	8.5	
Oc1ccccc1C(O)CN1CCN(C(c2ccccc2)c2ccccc2)CC1 (stereo not shown) [compound 1, 2-(4-Diphenylmethylpiperazinyl)-1-(2-hydroxyphenyl)ethanol.monohydrochloride, reference compound]		26	1.2	
